In US20070225213A1, “Nucleic acid carriers for delivery of therapeutic agents” (priority 2006, published 2007):

Tested on: 3T3
Assay: Cell uptake by MTN fluorescence EX620/EM680 (Examples 10 and 13, EX051605)
Format: cell-based, mouse
Settings: 10% w/w loading in DNA
Method: Materials: HSGDNA, MTN, ODNAS1116 (phosphorothioated, single stranded DNA, and Beta-cyclodextrin polymer (BCD-SBE, KKBIOMED Inc.) were previously prepared in water at 10 mg/ml, 1 mg/ml, 0.95 mg/ml, and 10 mg/ml respectively.
Procedure: For NAC-MTN, combined 37 ul HSGDNA (herring genomic DNA, Promega Inc.), 1426 ul HBSS( Hank's buffered saline, Sigma-Aldrich), with 37 ul of MTN, followed by 1500 ul 2× DMEM media to give 3 ml final and 24 uM (24 micro-molar) MTN and 10% w/w drug loading of MTN. For NAC-MTN (AR1505) combined 62 ul of HSDNA (deg. herring sperm DNA, Sigma) with 2377 ul HBSS, 61.7 ul MTN, 2500 ul 2× media to give 5 ml final and 24 uM MTN and 10% w/w drug loading of MTN to HSDNA. […]
Plate#1 Media was aspirated and cells treated with 100 ul of either NAC-MTN, CD-MTN, or MTN at 24 uM MTN final or 12.3 ug/ml MTN in all samples. Samples containing MTN were incubated 4 hours, removed, and fluorescence taken at EX620/EM680. […]
Samples were incubated 4 hours, removed, and MTN fluorescence taken at EX620/EM680. […] Average MTN fluorescence was averaged from 6 wells. For each cell type, MTN fluorescence was highest in MTN treated cells, followed by CD-MTN, and lowest in NAC-MTN. […]
PLATE#2: Dispensed 50 ul from source plate into plate #2 to give 150 ul final vol 4.1 ug/ml, 8 uMfinal per well, pre-read fluorescence w samples (bkgd) incubated 5 hr, removed, replaced w/ media, read fluor. […]

With `O=C1c2c(O)ccc(O)c2C(=O)c2c(NCCNCCO)ccc(NCCNCCO)c21` [MTN, mitoxantrone] the “% reduction in fluorescence relative to MTN alone (MTN = 0%)” value (Plate#1, 24 uM MTN, 4 hours) was 0% and the “% reduction in fluorescence relative to MTN alone (MTN = 0%)” value (Plate#2, 8 uM MTN) was 0%.
